The source of these data is ChEMBL document CHEMBL4004848, “Dregamine and tabernaemontanine derivatives as ABCB1 modulators on resistant cancer cells” (Eur J Med Chem, 2017).

Data set [1] addresses T1, ATP-dependent translocase ABCB1 (Homo sapiens, UniProt P08183). As to the kind of experiment: Inhibition of human ABCB1 expressed in mouse L5178Y cells assessed as increase in rhodamine-123 accumulation by measuring forward scatter count of cells at 2 uM pretreated for 10 mins followed by rhodamine-123 addition after 20 mins by flow cytometry (reference value: 2206). It is filed as cell-based. On the technique in general: In flow cytometry, cells or beads pass a laser one at a time.

The target of data set [2] is T1, ATP-dependent translocase ABCB1. Nature of the data set: Inhibition of human ABCB1 expressed in mouse L5178Y cells pretreated for 10 mins followed by rhodamine-123 addition after 20 mins by flow cytometry. It is filed as cell-based.
The nature of data set [3]: Selectivity index, ratio of IC50 for mouse L5178Y cells to IC50 for human ABCB1 expressed in L5178Y cells.
The target of data set [4] is T1, ATP-dependent translocase ABCB1. Nature of the data set: Inhibition of human ABCB1 expressed in mouse L5178Y cells assessed as fluorescence activity ratio at 20 uM pretreated for 10 mins followed by rhodamine-123 addition after 20 mins by flow cytometry. It is filed as cell-based.
For data set [5] the target is unchanged. As to the kind of experiment: Inhibition of human ABCB1 expressed in mouse L5178Y cells assessed as increase in rhodamine-123 accumulation by measuring side scatter count of cells at 20 uM pretreated for 10 mins followed by rhodamine-123 addition after 20 mins by flow cytometry (reference value: 903). It is filed as cell-based.
For data set [6], the system named is NIH3T3. Nature of the data set: Cytotoxicity against mouse NIH/3T3 cells after 24 hrs by MTT assay. The conditions noted are these: NIH3T3, 24 h. It is filed as cell-based. (Tetrazolium dyes change colour on reduction, which living cells bring about.)
For data set [7], the target named is T1, ATP-dependent translocase ABCB1. Nature of the data set: Inhibition of human ABCB1 expressed in mouse L5178Y cells assessed as fluorescence activity ratio at 2 uM pretreated for 10 mins followed by rhodamine-123 addition after 20 mins by flow cytometry. It is filed as cell-based.
Data set [8] deals with L5178Y. As to the kind of experiment: Cytotoxicity against mouse L5178Y cells after 24 hrs by MTT assay. It is filed as functional, cell-based.
In data set [9] the target is T1, ATP-dependent translocase ABCB1. Nature of the data set: Inhibition of human ABCB1 expressed in mouse L5178Y cells assessed as potentiation of doxorubicin-induced cytotoxicity by measuring combination index at 4:25 doxorubicin to compound ratio after 48 hrs by MTT assay. It is filed as cell-based.
For data set [10] the target is unchanged. As to the kind of experiment: Inhibition of human ABCB1 expressed in mouse L5178Y cells assessed as increase in rhodamine-123 accumulation by measuring side scatter count of cells at 2 uM pretreated for 10 mins followed by rhodamine-123 addition after 20 mins by flow cytometry (reference value: 903). It is filed as cell-based.
For data set [11] the target is unchanged. As to the kind of experiment: Inhibition of human ABCB1 expressed in mouse L5178Y cells assessed as increase in rhodamine-123 accumulation by measuring forward scatter count of cells at 20 uM pretreated for 10 mins followed by rhodamine-123 addition after 20 mins by flow cytometry (reference value: 2206). It is filed as cell-based.
Data set [12] has the same target. Nature of the data set: Inhibition of human ABCB1 expressed in mouse L5178Y cells assessed as potentiation of doxorubicin-induced cytotoxicity by measuring combination index at 2:5 doxorubicin to compound ratio after 48 hrs by MTT assay. It is filed as cell-based.
The nature of data set [13]: Selectivity index, ratio of IC50 for mouse NIH/3T3 cells to IC50 for mouse L5178Y cells. It is filed as functional.
Data set [14] deals with T1, ATP-dependent translocase ABCB1. Nature of the data set: Inhibition of human ABCB1 expressed in mouse L5178Y cells assessed as potentiation of doxorubicin-induced cytotoxicity by measuring combination index at 2:25 doxorubicin to compound ratio after 48 hrs by MTT assay. It is filed as cell-based.

Molecules are shown by their SMILES.

T1 sequence (P08183 whole entry): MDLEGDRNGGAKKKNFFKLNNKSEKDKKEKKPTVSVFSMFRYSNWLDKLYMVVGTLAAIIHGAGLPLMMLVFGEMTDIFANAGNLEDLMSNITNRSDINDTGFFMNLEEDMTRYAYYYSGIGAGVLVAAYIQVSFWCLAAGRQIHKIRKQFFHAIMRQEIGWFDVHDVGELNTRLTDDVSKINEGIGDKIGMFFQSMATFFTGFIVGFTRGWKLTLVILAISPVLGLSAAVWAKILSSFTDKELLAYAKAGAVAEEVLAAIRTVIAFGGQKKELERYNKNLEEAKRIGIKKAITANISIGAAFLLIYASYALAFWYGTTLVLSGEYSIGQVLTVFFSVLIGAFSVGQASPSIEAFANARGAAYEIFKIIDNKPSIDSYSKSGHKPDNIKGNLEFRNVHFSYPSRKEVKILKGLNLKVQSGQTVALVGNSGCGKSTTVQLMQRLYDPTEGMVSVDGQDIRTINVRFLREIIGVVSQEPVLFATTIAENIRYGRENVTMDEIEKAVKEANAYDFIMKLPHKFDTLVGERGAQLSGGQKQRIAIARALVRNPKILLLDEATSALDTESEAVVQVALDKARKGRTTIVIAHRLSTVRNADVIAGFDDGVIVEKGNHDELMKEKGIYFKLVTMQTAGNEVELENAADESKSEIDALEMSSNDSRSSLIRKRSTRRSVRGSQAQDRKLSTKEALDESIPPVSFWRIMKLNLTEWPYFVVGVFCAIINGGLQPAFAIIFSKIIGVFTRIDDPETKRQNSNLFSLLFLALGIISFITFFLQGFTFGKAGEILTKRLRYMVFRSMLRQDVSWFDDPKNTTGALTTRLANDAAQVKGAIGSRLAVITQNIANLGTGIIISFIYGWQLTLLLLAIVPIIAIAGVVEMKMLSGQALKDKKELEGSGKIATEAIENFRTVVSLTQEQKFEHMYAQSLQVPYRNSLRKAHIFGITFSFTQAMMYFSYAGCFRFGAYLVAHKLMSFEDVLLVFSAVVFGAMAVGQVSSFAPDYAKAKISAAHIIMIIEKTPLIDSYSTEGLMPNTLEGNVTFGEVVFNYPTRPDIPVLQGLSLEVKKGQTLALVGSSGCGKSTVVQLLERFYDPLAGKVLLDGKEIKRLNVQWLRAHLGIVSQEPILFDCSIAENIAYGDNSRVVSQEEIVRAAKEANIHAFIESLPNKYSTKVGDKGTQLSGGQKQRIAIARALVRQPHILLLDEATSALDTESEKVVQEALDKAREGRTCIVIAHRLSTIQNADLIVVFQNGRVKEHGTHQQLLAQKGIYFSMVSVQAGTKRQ

The IC50 is the point on the concentration scale where inhibition reaches its midpoint. A higher IC50 goes with weaker potency in that assay. Turning to `CC[C@H]1CN(C)[C@H]2Cc3c([nH]c4ccccc34)/C(=N/Nc3ccccc3)C[C@H]1[C@@H]2C(=O)OC`, the Activity in [1] is given as 2183; in [5], 1071; in data set [10], 1046; in data set [11], 2158. Moreover, the “inhibition (INH)” value in data set [2] was “Dose-dependent effect”. Moreover, the “Ratio IC50” value in data set [3] worked out at 0.84. The Ratio in data set [4] stood at 60.89; in data set [7], 8.84. Besides, the values for the IC50 in [6] and in data set [8] were > 100 µM and 44.2 µM, respectively. Further, the CI in data set [9] is reported as 0.34.

As for `CC[C@@H]1CN(C)[C@H]2Cc3c([nH]c4ccccc34)/C(=N/Nc3cnccn3)C[C@H]1[C@@H]2C(=O)OC`, the Activity amounted to 2283 in data set [1], 765 in [5], 793 in data set [10] and 2265 in [11]. Besides, the “inhibition (INH)” value in data set [2] was “Dose-dependent effect”. Also, the results for the Ratio in [4] and in data set [7] were 78.79 and 10.28, respectively. In addition, the results for the half-inhibitory concentration (IC50) in data set [6] and in data set [8] were > 100 µM and 63.9 µM, respectively. Also, the CI in [12] is 0.31.

As to `CC[C@@H]1CN(C)[C@H]2Cc3c([nH]c4ccccc34)[C@@H](O)C[C@H]1[C@@H]2C(=O)OC`, the Activity in data set [1] came to 2251; in data set [5] it was 788; in [10], 793; in [11] it was 2083. Moreover, the “inhibition (INH)” value in data set [2] is “Dose-dependent effect”. Also, the “Ratio IC50” value in data set [3] was determined as 0.66. Further, the results for the Ratio in data set [4] and in [7] were 1.36 and 0.88, respectively. Besides, the results for the IC50 in data set [6] and in [8] were > 100 µM and 55.6 µM, respectively. Moreover, the CI in data set [12] was 0.4.

Take `CC[C@H]1CN(C)[C@H]2Cc3c([nH]c4ccccc34)/C(=N/Nc3cnccn3)C[C@H]1[C@@H]2C(=O)OC`: the Activity in data set [1] was determined as 2227; in data set [5], 1038; in data set [10], 1058; in data set [11], 2229. In [2], the “inhibition (INH)” value is on record as “Dose-dependent effect”. The “Ratio IC50” value in [3] is reported as 0.88. Further, the Ratio in data set [4] was found to be 60.79; in data set [7] it was 8.49. The IC50 in data set [6] was > 100 µM; in data set [8] it was 75 µM. For the same molecule, the CI in [12] was found to be 0.1.

As to `CC[C@@H]1CN(C)[C@H]2Cc3c([nH]c4ccccc34)/C(=N/Nc3ccccc3)C[C@H]1[C@@H]2C(=O)OC`, the results for the “Ratio IC50” value in data set [13] and in data set [3] were 1.74 and 0.67, respectively. Also, the Activity came out at 2129 in data set [1], 955 in data set [5], 941 in data set [10] and 2046 in data set [11]. Further, the “inhibition (INH)” value in [2] is listed as “Dose-dependent effect”. The figures for the Ratio in data set [4] and in data set [7] were 59.65 and 5.49, respectively. For the same molecule, the IC50 was determined as 19.9 µM in data set [6] and 11.4 µM in data set [8]. Moreover, the CI in data set [14] was 0.2.

With `CC[C@H]1CN(C)[C@H]2Cc3c(n(C)c4ccccc34)C(=O)C[C@H]1[C@@H]2C(=O)OC`, the Activity in [1] was 2435; in data set [5] it was 1197; in [10], 1214; in data set [11], 2428. Also, the “inhibition (INH)” value in [2] is “Dose-dependent effect”. In [3], the “Ratio IC50” value was determined as 0.45. In addition, the Ratio is reported as 46.7 in data set [4] and 1.81 in data set [7]. Besides, the results for the IC50 in data set [6] and in [8] were > 100 µM and 40.4 µM, respectively. Further, the CI in data set [12] came to 0.24.
